Experimental data published in the supplement of paper PMC10307832.

Assays:
Test in all cases: relative viability (nuclei count vs DMSO), 5 days (fraction); higher = more cells survive
17-AAG + Navitoclax = compound: C=CCNC1=C2C[C@@H](C)C[C@H](OC)[C@H](O)[C@@H](C)/C=C(\C)[C@H](OC(N)=O)[C@@H](OC)/C=C\C=C(/C)C(=O)NC(=CC1=O)C2=O [17-AAG] + CC1(C)CCC(c2ccc(Cl)cc2)=C(CN2CCN(c3ccc(C(=O)NS(=O)(=O)c4ccc(N[C@H](CCN5CCOCC5)CSc5ccccc5)c(S(=O)(=O)C(F)(F)F)c4)cc3)CC2)C1 [Navitoclax] (partner 0.5 µM)
Summary of the method: (§1)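 After 5 days of treatment, lung cancer cells in 1536-well plates were fixed and stained in a single step (final 0.05% Triton X-100, 1% formaldehyde, 1 ug/ml Hoechst) and their nuclei counted on 4× images. Treatment had been applied by pin tool the day after seeding as one drug alone or as a fixed anchor-drug dose with five library-drug doses (not always all listed) in √10 steps. Relative viability is the nuclei count of treated wells divided by that of vehicle wells, and values are medians of duplicate plates.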

17-AAG + Crizotinib = compound: C=CCNC1=C2C[C@@H](C)C[C@H](OC)[C@H](O)[C@@H](C)/C=C(\C)[C@H](OC(N)=O)[C@@H](OC)/C=C\C=C(/C)C(=O)NC(=CC1=O)C2=O [17-AAG] + C[C@@H](Oc1cc(-c2cnn(C3CCNCC3)c2)cnc1N)c1c(Cl)ccc(F)c1Cl [Crizotinib] (partner 1 µM)
Summary of the method: as §1

17-AAG + Tozasertib = compound: C=CCNC1=C2C[C@@H](C)C[C@H](OC)[C@H](O)[C@@H](C)/C=C(\C)[C@H](OC(N)=O)[C@@H](OC)/C=C\C=C(/C)C(=O)NC(=CC1=O)C2=O [17-AAG] + Cc1cc(Nc2cc(N3CCN(C)CC3)nc(Sc3ccc(NC(=O)C4CC4)cc3)n2)n[nH]1 [Tozasertib] (partner 0.1 µM)
Summary of the method: as §1

17-AAG + Vorinostat = compound: C=CCNC1=C2C[C@@H](C)C[C@H](OC)[C@H](O)[C@@H](C)/C=C(\C)[C@H](OC(N)=O)[C@@H](OC)/C=C\C=C(/C)C(=O)NC(=CC1=O)C2=O [17-AAG] + O=C(CCCCCCC(=O)Nc1ccccc1)NO [Vorinostat] (partner 1 µM)
Summary of the method: as §1

Cell Line | relative viability (17-AAG + Navitoclax; first compound 0.00128 µM) | relative viability (17-AAG + Navitoclax; first compound 0.004048 µM) | relative viability (17-AAG + Navitoclax; first compound 0.0128 µM) | relative viability (17-AAG + Navitoclax; first compound 0.04048 µM) | relative viability (17-AAG + Navitoclax; first compound 0.128 µM) | relative viability (17-AAG + Crizotinib; first compound 0.00128 µM) | relative viability (17-AAG + Crizotinib; first compound 0.004048 µM) | relative viability (17-AAG + Crizotinib; first compound 0.0128 µM) | relative viability (17-AAG + Crizotinib; first compound 0.04048 µM) | relative viability (17-AAG + Crizotinib; first compound 0.128 µM) | relative viability (17-AAG + Tozasertib; first compound 0.00128 µM) | relative viability (17-AAG + Tozasertib; first compound 0.004048 µM) | relative viability (17-AAG + Tozasertib; first compound 0.0128 µM) | relative viability (17-AAG + Tozasertib; first compound 0.04048 µM) | relative viability (17-AAG + Tozasertib; first compound 0.128 µM) | relative viability (17-AAG + Vorinostat; first compound 0.00128 µM) | relative viability (17-AAG + Vorinostat; first compound 0.004048 µM) | relative viability (17-AAG + Vorinostat; first compound 0.0128 µM) | relative viability (17-AAG + Vorinostat; first compound 0.04048 µM) | relative viability (17-AAG + Vorinostat; first compound 0.128 µM)
COR-L 105 | 0.936 | 0.756 | 0.721 | 0.604 | 0.486 | 0.961 | 0.9 | 0.793 | 0.568 | 0.661 | 0.458 | 0.356 | 0.384 | 0.713 | 0.418 | 0.876 | 0.983 | 0.783 | 0.728 | 0.439
LK-2 | 1.11 | 0.97 | 0.619 | 0.285 | 0.171 | 0.212 | 0.249 | 0.357 | 0.232 | 0.176 | 0.161 | 0.174 | 0.153 | 0.227 | 0.172 | 0.323 | 0.445 | 0.178 | 0.174 | 0.236
NCI-H838 | 1.15 | 1.12 | 1.07 | 0.165 | 0.166 | 0.748 | 0.729 | 0.259 | 0.118 | 0.112 | 0.315 | 0.309 | 0.161 | 0.135 | 0.134 | 0.759 | 0.779 | 0.213 | 0.168 | 0.169
SK-LU-1 | 0.818 | 0.164 | 0.135 | 0.152 | 0.136 | 0.888 | 0.435 | 0.242 | 0.232 | 0.176 | 0.426 | 0.243 | 0.128 | 0.152 | 0.139 | 0.86 | 0.556 | 0.293 | 0.253 | 0.199
NCI-H2023 | 0.989 | 0.867 | 0.641 | 0.11 | 0.112 | 0.627 | 0.575 | 0.128 | 0.0736 | 0.063 | 0.51 | 0.351 | 0.102 | 0.0765 | 0.0654 | 0.572 | 0.37 | 0.112 | 0.0782 | 0.0643
NCI-H441 | 0.527 | 0.335 | 0.157 | 0.262 | 0.131 | 0.804 | 0.707 | 0.462 | 0.292 | 0.0949 | 0.723 | 0.609 | 0.321 | 0.235 | 0.15 | 0.968 | 0.996 | 0.617 | 0.128 | 0.121
NCI-H1666 | 0.958 | 0.699 | 0.277 | 0.314 | 0.236 | 1.04 | 0.853 | 0.288 | 0.305 | 0.215 | 0.589 | 0.599 | 0.46 | 0.343 | 0.294 | 1.1 | 1.06 | 1.02 | 0.498 | 0.482
NCI-H1648 |  |  |  |  |  |  |  |  |  |  | 0.433 |  | 0.426 | 0.608 | 0.327 |  | 0.433 | 0.362 | 0.538 | 0.243
NCI-H2087 | 0.96 | 0.754 | 0.284 | 0.202 | 0.195 | 0.861 | 0.66 | 0.321 | 0.213 | 0.148 | 0.306 | 0.228 | 0.208 | 0.148 | 0.1 | 0.996 | 0.656 | 0.252 | 0.116 | 0.116
LU99A | 0.817 | 0.821 | 0.921 | 0.271 | 0.132 | 0.588 | 0.512 | 0.331 | 0.184 | 0.134 | 0.288 | 0.345 | 0.399 | 0.276 | 0.132 | 0.479 | 0.476 | 0.301 | 0.203 | 0.127
HCC-366 | 1.06 | 1.02 | 0.358 | 0.0314 | 0.0217 | 0.463 | 0.506 | 0.0283 | 0.018 | 0.0156 | 0.191 | 0.22 | 0.268 | 0.044 | 0.0391 | 0.305 | 0.374 | 0.149 | 0.0397 | 0.0268
EKVX | 0.997 | 0.937 | 0.934 | 0.242 | 0.165 | 1.07 | 0.902 | 0.951 | 0.529 | 0.114 | 0.448 | 0.377 | 0.398 | 0.238 | 0.0984 | 0.783 | 0.802 | 0.719 | 0.423 | 0.567
NCI-H522 |  |  |  |  |  |  |  |  |  |  | 0.621 | 0.532 | 0.619 | 0.558 | 0.502 | 0.982 | 0.944 | 0.518 | 0.423 | 0.382
NCI-H1755 | 1.01 | 1 | 0.957 | 0.8 | 0.315 | 0.888 | 0.841 | 0.84 | 0.588 | 0.209 | 0.609 | 0.477 | 0.481 | 0.363 | 0.215 | 0.815 | 0.735 | 0.712 | 0.589 | 0.243
NCI-H650 |  |  |  |  |  | 0.759 | 0.685 | 0.6 | 0.476 | 0.134 | 0.698 | 0.675 | 0.702 | 0.584 | 0.153 | 0.443 | 0.497 | 0.477 | 0.32 | 0.193
LC-2-ad | 0.525 | 0.565 | 0.393 | 0.234 | 0.111 | 0.452 | 0.448 | 0.527 | 0.278 | 0.171 | 0.437 | 0.437 | 0.429 | 0.316 | 0.226 | 0.701 | 0.719 | 0.732 | 0.318 | 0.182
